Marks after values point to notes of the source that are not given here.
Experiments:
[1] = system: GV oocytes from 7-8-week-old CF1 mice; test: In vitro maturation (IVM) of GV oocytes from young CF1 mice, metaphase II egg karyotyping (chromosome staining only); assay type: cell-based, mouse
Experimental: Immature mouse oocytes (a.k.a. “GV oocytes” for the presence of intact germinal vesicle) from young CF1 mice (7-8 weeks of age) were cultured in medium (control) or medium containing 5 mM DFMO (Garcia-Faroldi et al., 2009).
All metaphase II eggs were subjected to karyotype analyses and counted spreads that contained 18 or more chromosomes and in which all chromosomes were close together, to eliminate over-spread karyotypes. Only hyperploid eggs, those containing 21 or more chromosomes, were considered aneuploid, to avoid artifacts due to loss of chromosomes during preparation of chromosome spreads (Koehler et al., 2006). In this set of experiments, in which only DNA staining was employed, hyperploid oocytes that contained extra whole chromosomes (dyads) were not distinguished from those that contained separated sister(s), because it is often difficult to differentiate a small chromosome dyad and a single sister in telocentric chromosomes such as in mouse.
Metaphase II eggs were karyotyped with chromosome staining only. N: total number of interpretable metaphase II spreads, with 18 or more chromosomes. Hypoploid: 18-19 chromosomes. Euploid: 20 chromosomes. Hyperploid: 21 chromosomes.
Mice were euthanized by cervical dislocation 44-46 h after they were primed with 5 IU equine chorionic gonadotropin (eCG) intraperitonally. […] Ovaries were immediately removed and minced in M2 medium (Sigma; unless otherwise indicated, other chemicals used in this study were also purchased from Sigma) to release oocytes. Oocytes with a clear germinal vesicle (GV) were used for in vitro maturation (IVM) for 17 hours in IVM medium (αMEM medium supplemented with 5% fetal bovine serum and 1 mM L-glutamine) overlaid with mineral oil.
Chromosome spread was carried out according to Hodges and Hunt (Hodges & Hunt, 2002) with minor modifications. In brief, oocytes or 2-cell embryos were collected in M2 medium. The zona pellucida was removed by treatment with 0.5 units/μl pronase at 37° C. for 20 sec. Zona-free oocytes/embryos were rinsed in M2 medium to detach polar bodies. The oocytes/embryos were individually plated onto glass slides (1-10 oocytes/embryos per slide) predipped in the fixative (prepared weekly and stored at 4° C.) containing 1% paraformaldehyde (w/v), 0.15% Triton X-100 (v/v), and 3 mM dithiothreitol, pH 9.2. Slides were kept overnight in moist boxes at room temperature. The slides were then rinsed in 0.5% Kodak Flo (Eastman Kodak Company, Rochester, N.Y.) solution and air-dried. The slides were incubated in 1:200 diluted human anti-centromere serum (Immunovision, Springdale, Ark.) in PBS containing 1% BSA overnight at 4° C., in 1:300 diluted secondary antibody (goat anti-human) conjugated with rhodamine (Jackson ImmunoResearch) in PBS-BSA for 1 h at room temperature, and 0.1% SYTOX green (Invitrogen, Eugene, Oreg.) in PBS for 30 min at room temperature. To avoid bias, the slides were coded by a colleague before being examined by an investigator using epifluorescence microscopy and photographed. Decoding was done after karyotypes were tabulated.

ovarian polyamines = test: Ovarian polyamine quantification by ion chromatography; assay type: in vivo, mouse; conditions: 1% DFMO in drinking water for 48 hours up to sacrifice
Experimental: A Dionex ion chromatography system was used to analyze polyamines during ovulation. This system employs an online conductivity detector coupled with an anion suppressor such that only cations are detected. Ovaries were extracted in 5% trichloric acid (TCA) followed by extraction with diethyl ether. The TCA extracts were diluted in water before being applied to the ion chromatography system.
Polyamines from ovarian samples were determined by ion chromatography (IC) system (Rey and Pohl, 2003. J. Chromatography A 997:199-206). Ovaries were collected immediately after animal sacrifice and stored at −80° C. until use. The samples were thawed and minced, and then 5% trichloroacetic acid (TCA) was added (20 μl/mg). The samples were ultra-sonicated 30 seconds thrice. After centrifugation, the supernatants were extracted twice with diethyl ether. The mouse blood was collected in a tube containing 1 iu/ml heparin (LEO). After centrifugation, the supernatant (plasma) was collected and 10% TCA was added by 1:1 in volume. These plasma samples were extracted twice with diethyl ether, as noted above. The extracts were diluted 10 times in water for polyamine analysis on Dionex Ion ICS-2100 system (Thermo scientific, Dionex, Sunnyvale, Calif., USA) according to the manufacture instructions, using the support software of PeakNet 6.40 SP5 Build 778.

[2] = system: young (7-8 weeks) CF1 mice; test: DFMO in mouse drinking water, karyotyping of oviduct-derived metaphase II eggs; assay type: in vivo
From the text: The effect of DFMO on egg aneuploidy in vivo was also examined. […] Oviduct-derived metaphase II eggs, from control mice and DFMO treated mice, were subjected to karyotype analyses. In these and all subsequent egg karyotype analyses, anti-CREST antibodies were used to label centromeres (Hodges & Hunt, 2002), in addition to DNA staining. This modification allowed unambiguous identification of single sister chromatid(s) in metaphase II eggs, termed premature separation of sister chromatids (PSSC), the predominant form of mouse egg aneuploidies found in this study (see Table 3).
Hypoploid: 18-19 dyads. Euploid: 20 dyads. Hyperploid: 21 or 22 dyads. […] Aneuploid: 2×hyperploid+PSSC. Detailed breakdowns are in Table 7.
In order to collect mature (metaphase II) oocytes in vivo (ovulation experiments) each mouse was injected with 5 IU human chorionic gonadotropin (hCG) intraperitoneally 44-46 h after eCG priming. The animals were euthanized 16-18 h after hCG injection and MII eggs were flushed out of oviducts in M2 medium and subjected to karyotype analyses as described below. For mice that were treated with 1% DFMO in drinking water, the drugs were present until the time of euthanization (see FIG. 4 for details).
(§1) Decoding was done after karyotypes were tabulated.

[3] = system: GV oocytes from young hybrid F1 females (C57BL/6 x SPRET/Ei); test: IVM of GV oocytes from young hybrid F1 females, metaphase II egg karyotyping; assay type: cell-based, mouse; conditions: 17 h IVM, 5 mM DFMO
Experimental: Table 8 DFMO increases the egg aneuploidy rate of young hybrid F1 females. GV oocytes isolated from young (7-8 weeks) hybrid F1 females, via crossing C57BL/6 females and SPRET/Ei males, were incubated for 17 h in αMEM (control) or αMEM containing 5 mM DFMO. […] Hypoploid: 18-19 dyads. Euploid: 20 dyads. Hyperploid: 21 or 22 dyads. […] Aneuploid: 2×hyperploid+PSSC. Detailed breakdowns are in Table 9.
Two other mouse models were additionally used. First, DFMO was tested as a potential treatment to […] egg aneuploidy in the hybrid F1 females that has a high baseline aneuploidy rate similar to human (Koehler et al., 2006).
as §1

[4] = system: 2-cell embryos of young CF1 mice; test: DFMO in mouse drinking water prior to mating, 2-cell embryo karyotyping; assay type: in vivo
Experimental: Table 10 DFMO in mouse drinking water increases hyperploid 2-cell embryos. Young (7-8 weeks) CF1 mice were treated with regular water (control), or 1% DFMO drinking water for 48 h, prior to mating (see FIG. 5 for details). Embryos (2-cell) were isolated and subjected to karyotype analyses. N: Total interpretable 2-cell embryos. Euploid: 40 chromosomes in each of the two blastomeres, or 40 chromosomes in one blastomere with the other blastomere having less than 40 chromosomes or uninterpretable/lost. Hypoploid: 39 chromosomes in each of the two blastomeres, or 39 in one blastomere with the other less than 39 or uninterpretable/lost. Hyperploid: 41 chromosomes in at least one blastomere (we found no 42 or more chromosomes in this study). Detailed breakdowns are in Table 11.
To produce 2-cell embryos, mice were sequentially injected with eCG and hCG, as above for ovulation. After hCG injection, the females were caged singly with fertile young males overnight. For mice that were treated with 1% DFMO, the drug was withdrawn, and normal water resumed, at the time of hCG injection (see […] for details). The females were separated from the males in the next morning (day 1 post coital or p.c.). Females were euthanized in the late morning on day 2 p.c., and the embryos were collected by flushing the oviducts with M2 medium. After three rinses in KSOM medium, the embryos were cultured 17 h in KSOM containing 0.02 μg/ml colchicine to cause metaphase arrest of the 2-cell embryos.
as §1

ovarian ODC = target: T1, ovarian ODC (Mus musculus, UniProt P00860); test: Ovarian ODC activity assay; assay type: in vivo; conditions: 1% DFMO in drinking water, hCG-stimulated 8-week-old mice
T1 construct: The ovarian homogenates were centrifuged at 16,000×g for 10 min; Supernatants were applied to ODC assays; from tissue; host or cells: mouse ovary (C57BL/6, 8 weeks old, hCG-stimulated), homogenate supernatant
T1 sequence (P00860 1-461): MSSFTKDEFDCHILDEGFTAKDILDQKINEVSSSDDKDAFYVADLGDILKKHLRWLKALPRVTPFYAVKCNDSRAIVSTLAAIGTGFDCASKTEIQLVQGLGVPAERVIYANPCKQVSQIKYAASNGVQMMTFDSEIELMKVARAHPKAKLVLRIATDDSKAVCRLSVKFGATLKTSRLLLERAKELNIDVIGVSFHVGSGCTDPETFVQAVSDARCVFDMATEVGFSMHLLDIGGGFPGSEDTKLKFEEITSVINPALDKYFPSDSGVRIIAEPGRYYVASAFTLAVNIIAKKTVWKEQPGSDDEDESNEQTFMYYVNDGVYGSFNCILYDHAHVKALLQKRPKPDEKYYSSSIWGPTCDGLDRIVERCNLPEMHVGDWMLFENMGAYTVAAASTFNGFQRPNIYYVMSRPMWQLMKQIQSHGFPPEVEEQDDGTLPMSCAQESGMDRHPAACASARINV
Experimental: After 44-46 h eCG priming, or 6 h following the subsequent hCG injection, the ovaries were collected into Eppendorf tubes and frozen at −80° C. immediately till use. The ovaries were weighed and minced with optical scissors. Lysis buffer (25 mM Tris/HCl pH 7.2, 2 mM dithiothreitol, 0.1 mM EDTA, 0.25 M sucrose, 0.1% Triton X-100 (v/v); modified from Bastida et al. (Bastida et al., 2005) was added 25 μL per mg ovarian tissues and the resulting suspension homogenized by sonication (Fisher Sonic Demembrator, New York, USA) for 20 seconds thrice. The ovarian homogenates were centrifuged at 16,000×g for 10 min. Supernatants were applied to ODC assays (Zhou et al., 2009) in microtiter plates, each well containing 50 μL of lysate, plus 0.1 mM pyridoxyl-5-phosphate and 0.5 μCi (57.1 mCi/mmol) of 14C-labeled ornithine (PerkinElmer, Boston, Mass.). The wells were tightly covered with 3MM paper pre-wet in freshly prepared water-saturated Ba(OH)2. The wells were incubated 1 h at 37° C. ^14CO2 released from decarboxylation reaction formed Ba^14CO3 precipitates on filter. […] The Storage phosphor screen was then scanned on Typhoon™ imaging system (GE Healthcare Life Sciences), resulting in digital images that were then quantified by Image Quant5.2 (GE Healthcare Life Sciences). ODC activity is expressed as relative light intensity in arbitrary units.

[5] = number of ovulated MII eggs, 1% DFMO drinking water 48 h
[6] = number of 2-cell embryos, 1% DFMO drinking water 48 h prior to mating
[7] = percent of interpretable 2-cell embryos, 1% DFMO drinking water 48 h

## NCCC[C@](N)(C(=O)O)C(F)F [DFMO, α-difluoromethylornithine]
[1]; 5 mM DFMO in IVM medium, 776/945
  first polar body emission: 82%
[1]; 17 h IVM, 5 mM
  % Hyperploidy: 4.9 * %
[1]; number of MII eggs with 18 chromosomes, 17 h IVM, 5 mM each agent in αMEM
  Hypoploid 18: 2
[1]; number of MII eggs with 19 chromosomes, 17 h IVM, 5 mM
  Hypoploid 19: 18
[1]; number of MII eggs with 20 chromosomes, 17 h IVM, 5 mM
  Eupoloid 20: 175
[1]; number of MII eggs with 21 chromosomes, 17 h IVM, 5 mM
  Hyperploid 21: 10
[1]; number of MII eggs with 22 chromosomes, 17 h IVM, 5 mM
  Hyperploid 22: 0
Ovarian polyamines
  hCG-mediated ovarian putrescine increase: completely eliminated
[2]; 1% DFMO drinking water 48 h
  % Hyperploidy: 1.1** %
[2]; 1% DFMO drinking water, n=37
  number of MII eggs collected from the oviducts: 29.3 /mouse
[2]; Aneuploid: 2×hyperploid+PSSC, 1% DFMO drinking water 48 h
  % Aneuploidy: 7.7%
[2]; number of eggs with separated sister chromatid(s), 1% DFMO drinking water 48 h
  PSSC: 14*
[2]; [5]
  Eupoloid 20: 191
  Hyperploid 21: 3
  Hyperploid 22: 0
  Hypoploid 18: 12
  Hypoploid 19: 41
[3]
  % Hyperploidy: 2.5** %
[3]; Aneuploid: 2×hyperploid+PSSC
  % Aneuploidy: 22.5%
[3]; number of MII eggs
  Euploid 20: 50
  Hyperploid 21: 2
  Hyperploid 22: 0
  Hypoploid 18: 5
  Hypoploid 19: 9
  PSSC: 14*
[4]; [6]
  Euploid 40: 38
  Hyperploid 41: 5
  Hypoploid 39: 5
[4]; [7]
  Euploid 40: 79.2%
  Hyperploid 41: 10.4%
  Hypoploid 39: 10.4%
Ovarian ODC
  ovarian ODC activity: efficiently inhibited

Reference: US9248108B2 (Ottawa Hospital Research Institute, priority 2012, dated 2016)
